Measurements from US20240294551A1 (AMGEN INC., priority 2022, published 2024).
pIC50: −log10 of the molar value. Where two headings read alike, the source gives them in different places.

Experiments:
[1] = molecular target: GDP-bound KRAS protein (aa 1-169), containing both G12D and C118A amino acid substitutions (Homo sapiens (Human), UniProt P01116, C118A/G12D); assay: KRAS G12D Coupled Nucleotide Exchange Assay; format: biochemical
Method: KRAS G12D Coupled Nucleotide Exchange Assay
Following compound pre-incubation, purified SOS protein (aa 564-1049) and GTP (Roche 10106399001) were added to the assay wells and incubated for an additional 30 min. To determine the extent of inhibition of SOS-mediated nucleotide exchange, purified GST-tagged cRAF (aa 1-149), nickel chelate AlphaLISA acceptor beads (PerkinElmer AL108R), and AlphaScreen glutathione donor beads (PerkinElmer 6765302) were added to the assay wells and incubated for 10 minutes. The assay plates were then read on a PerkinElmer EnVision Multilabel Reader, using AlphaScreen® technology, and data were analyzed using a 4-parameter logistic model to calculate IC50 values.

[2] = molecular target: His-tagged KRAS G12D protein (Homo sapiens (Human), UniProt P01116, G12D); assay: KRAS G12D TR-FRET Assay; format: binding
Sequence of His-tagged KRAS G12D protein (P01116 other isoform, or with tags, fused parts or gaps G12D): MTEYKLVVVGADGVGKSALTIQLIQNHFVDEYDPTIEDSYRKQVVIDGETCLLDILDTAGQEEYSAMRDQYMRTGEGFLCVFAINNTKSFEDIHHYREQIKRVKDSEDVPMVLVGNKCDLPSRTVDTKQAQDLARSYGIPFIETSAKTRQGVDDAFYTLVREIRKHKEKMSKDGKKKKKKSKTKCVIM
Method: Compounds of interest were prepared in a dose-response titration in DMSO, and 80 nL were added via Labcyte Echo to each well of a 384-well plate (Perkin Elmer 6008280). The His-tagged KRAS G12D protein (Amgen) was diluted to 20 nM in Assay Buffer (20 mM HEPES, pH 7.4, 10 mM MgCl2, 50 mM NaCl, 0.1% BSA, 0.01% Tween-20, 10 μM GDP) and 2 μL was added to the appropriate wells of the 384-well plate. The plate was incubated for 30 minutes at room temperature. Biotinylated KRPep-2d substrate (Amgen) was diluted to 20 nM in Assay Buffer and 2 μL was added to all wells and incubated for 1 hour at room temperature. Detection Reagent (0.4 nM LANCE Eu-W1024 Anti-6×His (Perkin Elmer AD0401), 5 nM streptavidin-d2 (Cisbio 610SADLA)) was prepared in Assay Buffer, then 4 μL was added to the plate and incubated for 1 hour at room temperature. Plates were read using PerkinElmer EnVision (ex: 320 nm, em1: 665 nm, em2: 615 nm) and em1/em2 data was used to generate curve fits using a 4-parameter logistic model to calculate IC50 values.

[3] = read-out: KRAS G12D Coupled Exchange IC50
[4] = read-out: KRAS G12D Binding IC50
[5] = 2 hours compound pre-incubation, read-out: KRAS G12D Coupled Exchange
[6] = TR-FRET, read-out: KRAS G12D Binding

Sequence of GDP-bound KRAS protein (aa 1-169), containing both G12D and C118A amino acid substitutions (P01116 other isoform, or with tags, fused parts or gaps G12D/C118A): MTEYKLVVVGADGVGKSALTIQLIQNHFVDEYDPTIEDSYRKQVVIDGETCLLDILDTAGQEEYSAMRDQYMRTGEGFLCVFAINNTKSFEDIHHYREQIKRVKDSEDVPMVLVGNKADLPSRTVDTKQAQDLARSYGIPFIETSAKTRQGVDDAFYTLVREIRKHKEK

pIC50 [1, 3] | pIC50 [2, 4] | pIC50 [1, 5] | pIC50 [2, 6] | IC50 [1, 3] [nM] | Structure (SMILES)
7.10 | 6.84 | – | – | – | [O-][S+]1CCCCc2c(Cl)cc3[nH]ncc3c2-c2ncc3c(nc(OC[C@@]45CCCN4C[C@H](F)C5)nc3c2F)N2CCC[C@H](C2)C1 (mixture of isomers) [Example 144]
– | – | 8.70 | 8.30 | – | O[C@H]1C[C@@H]2CN(C1)c1nc(OC[C@@]34CCCN3C[C@H](F)C4)nc3c(F)c(ncc13)-c1c(c(Cl)cc3[nH]ncc13)CCCc1nc2no1 (mixture of isomers) [Example 377]
– | 6.30 | – | – | 153 | O=C1CCCCc2c(Cl)cc3[nH]ncc3c2-c2ncc3c(nc(OC[C@@]45CCCN4C[C@H](F)C5)nc3c2F)N2C[C@H](O)C[C@@H](C2)N1 (racemic) [Example 276, (17S,19R)-9-chloro-30-fluoro-24-(((2R,7aS)-2-fluorotetrahydro-1H-pyrrolo[1,2-a]pyrrol-7a(5H)-yl)methoxy)-19-hydroxy-5,6,16,21,23,25,29-heptaazahexacyclo[24.3.1.1~17,21~.0~2,10~.0~3,7~.0~22,27~]hentriaconta-1(30),2,4,7,9,22,24,26,28-nonaen-15-one]
5.32 | 5.02 | – | – | – | Cc1cc2[nH]ncc2c2c1[C@@H]1C[C@@H]1CCOC[C@H]1CN(CCO1)c1nc(OC[C@@]34CCCN3C[C@H](F)C4)nc3c(F)c-2ncc13 (single isomer, unassigned) [Example 225]
5.62 | 5.49 | – | – | – | Fc1c2ncc3c(nc(OC[C@@]45CCCN4C[C@H](F)C5)nc13)N1CCO[C@]3(C1)C[C@H](C3)OCCCCc1c(Cl)cc3[nH]ncc3c1-2 (single isomer, unassigned) [Example 262]
7.19 | 7.00 | – | – | – | Cc1cc2[nH]ncc2c2c1CCOC(=O)O[C@H]1C[C@@]3(CCCN(C3)c3nc(OC[C@@H]4CCCN4C)nc4c(F)c-2ncc34)C1 (single isomer, unassigned) [Example 325]
– | – | 7.34 | 7.01 | – | O=C1CCCCc2c(Cl)cc3[nH]ncc3c2-c2ncc3c(nc(OC[C@@]45CCCN4C[C@H](F)C5)nc3c2F)N2CC[C@H]3[C@@H](C2)N1CC3(F)F (single isomer, unassigned) [Example 402]
– | – | 6.70 | 5.93 | – | OC1c2ncc(o2)CCc2c(Cl)cc3[nH]ncc3c2-c2ncc3c(nc(OC[C@@]45CCCN4C[C@H](F)C5)nc3c2F)N2CCO[C@@H]1C2 (stereo in doubt) [Example 395, (17R,18R)-9-chloro-31-fluoro-25-(((2R,7aS)-2-fluorotetrahydro-1H-pyrrolo[1,2-a]pyrrol-7a(5H)-yl)methoxy)-19,33-dioxa-5,6,15,22,24,26,30-heptaazaheptacyclo[25.3.1.1~13,16~.1~18,22~.0~2,10~.0~3,7~.0~23,28~]tritriaconta-1(31),2,4,7,9,13,15,23,25,27,29-undecaen-17-ol]
– | – | – | – | 149 | [2H]C([2H])([2H])[C@]12COCCN(C1)c1nc(OC[C@@]34CCCN3C[C@H](F)C4)nc3c(F)c(ncc13)-c1c(c(C)cc3[nH]ncc13)CCCOC(=O)O2 [Example 351, (26R)-32-fluoro-4-(((2R,7aS)-2-fluorotetrahydro-1H-pyrrolo[1,2-a]pyrrol-7a(5H)-yl)methoxy)-18-methyl-26-(~2~H_3_)methyl-23,25,28-trioxa-1,3,5,9,14,15-hexaazahexacyclo[24.4.1.1~6,10~.0~2,7~.0~11,19~.0~12,16~]dotriaconta-2,4,6,8,10(32),11,13,16,18-nonaen-24-one]
– | – | – | – | 531 | [2H]C([2H])([2H])[C@]12COCCN(C1)c1nc(OC[C@@]34CCCN3C[C@H](F)C4)nc3c(F)c(ncc13)-c1c(c(Cl)cc3[nH]ncc13)CCCOC(=O)O2 [Example 354, (26R)-18-chloro-32-fluoro-4-(((2R,7aS)-2-fluorotetrahydro-1H-pyrrolo[1,2-a]pyrrol-7a(5H)-yl)methoxy)-26-(~2~H_3_)methyl-23,25,28-trioxa-1,3,5,9,14,15-hexaazahexacyclo[24.4.1.1~6,10~.0~2,7~.0~11,19~.0~12,16~]dotriaconta-2,4,6(32),7,9,11,13,16,18-nonaen-24-one]

Continued, compound first:

Structure (SMILES) | pIC50 [1, 3] | pIC50 [2, 4] | pIC50 [1, 5] | pIC50 [2, 6] | IC50 [1, 3] [nM]
Cc1cc2[nH]ncc2c2c1CCCCC(=O)N1CC3CCN(CC3C1)c1nc(OC[C@@]34CCCN3C[C@H](F)C4)nc3c(F)c-2ncc13 (mixture of isomers) [Example 57] | 6.71 | 6.66 | – | – | –
CN1C(=O)CCCCc2c(Cl)cc3[nH]ncc3c2-c2ncc3c(nc(OC[C@@]45CCCN4C[C@H](F)C5)nc3c2F)N2CCOCC1C2 (mixture of isomers) [Example 64] | 7.09 | 7.01 | – | – | –
Cc1cc2[nH]ncc2c2c1CCCCC(=O)OC1CN(CC3(CC3)C1)c1nc(OC[C@@]34CCCN3C[C@H](F)C4)nc3c(F)c-2ncc13 (mixture of isomers) [Example 80, (17′R)-30′-fluoro-24′-(((2R,7aS)-2-fluorotetrahydro-1H-pyrrolo[1,2-a]pyrrol-7a(5H)-yl)methoxy)-9′-methyl-16′-oxa-5′,6′,21′,23′,25′,29′-hexaazaspiro[cyclopropane-1,19′-hexacyclo[24.3.1.1~17,21~.0~2,10~.0~3,7~.0~22,27~]hentriacontane]-1′(30′),2′,4′,7′,9′,22′,24′,26′,28′-nonaen-15′-one] | 7.33 | 7.26 | – | – | –
Cc1cc2[nH]ncc2c2c1CCCCC(=O)OC1CN(CC(F)(F)C1)c1nc(OC[C@@]34CCCN3C[C@H](F)C4)nc3c(F)c-2ncc13 (mixture of isomers) [Example 81] | 6.67 | 6.55 | – | – | –
Cc1cc2[nH]ncc2c2c1CCC(=O)OCCC1CCCN(C1)c1nc(OC[C@@]34CCCN3C[C@H](F)C4)nc3c(F)c-2ncc13 (mixture of isomers) [Example 107] | 7.38 | 7.15 | – | – | –
Cc1cc2[nH]ncc2c2c1CCCCC(=O)OC1CC[C@@H]3CC[C@H]1N3c1nc(OC[C@@]34CCCN3C[C@H](F)C4)nc3c(F)c-2ncc13 (racemic) [Example 86] | – | 7.21 | – | – | 57
COc1nc2c3cnc(c(F)c3n1)-c1cc(O)cc3ccc(F)c(c13)CCCC(=O)N[C@]1(C)CCCN2C1 [Example 6, (15R)-22,31-Difluoro-27-hydroxy-8-methoxy-15-methyl-3,7,9,11,16-pentaazahexacyclo[19.7.1.1˜2,6˜.1˜11,15˜.0˜5,10˜.0˜25,29˜]hentriaconta-1(28),2(31),3,5,7,9,21,23,25(29),26-decaen-17-one bis(2,2,2-trifluoroacetate)] | 6.90 | 6.81 | – | – | –
O=C1CCCCc2cccc3cc(O)cc(c23)-c2ncc3c(nc(OC[C@@]45CCCN4C[C@H](F)C5)nc3c2F)N2CCCN1CC2 [Example 9, 32-Fluoro-4-(((2R,7aS)-2-fluorotetrahydro-1H-pyrrolo[1,2-a]pyrrol-7a(5H)-yl)methoxy)-13-hydroxy-1,3,5,9,25-pentaazahexacyclo[23.3.2.1˜6,10˜.1˜11,15˜.0˜2,7˜.0˜19,31˜]dotriaconta-2,4,6(32),7,9,11(31),12,14,16,18-decaen-24-one bis(2,2,2-trifluoroacetate)] | 6.53 | 6.52 | – | – | –
Cc1nc2c3cnc(c(F)c3n1)-c1cc(O)cc3ccc(F)c(c13)CCCC(=O)N[C@]1(C)CCCN2C1.O=C(O)C(F)(F)F [Example 14, (15R)-22,31-Difluoro-27-hydroxy-8,15-dimethyl-3,7,9,11,16-pentaazahexacyclo[19.7.1.1˜2,6˜.1˜11,15˜.0˜5,10˜.0˜25,29˜]hentriaconta-1(28),2(31),3,5,7,9,21,23,25(29),26-decaen-17-one 2,2,2-trifluoroacetate] | – | 6.46 | – | – | 296
Cc1cc2[nH]ncc2c2c1CCCCCC(=O)N[C@]1(C)CCCN(C1)c1nc(OC[C@@]34CCCN3C[C@H](F)C4)nc3c(F)c-2ncc13 [Example 21, (18R)-31-Fluoro-25-(((2R,7aS)-2-fluorotetrahydro-1H-pyrrolo[1,2-a]pyrrol-7a(5H)-yl)methoxy)-9,18-dimethyl-5,6,17,22,24,26,30-heptaazahexacyclo[25.3.1.1˜18,22˜0.0˜2,10˜0.0˜3,7˜0.0˜23,28˜]dotriaconta-1(31),2,4,7,9,23,25,27,29-nonaen-16-one] | 7.37 | 7.37 | – | – | –
Cc1c2ncc3c(nc(OCC45CCC(CC4)O5)nc13)N1CCC[C@](C)(C1)NC(=O)CCCc1c(F)ccc3cc(O)cc-2c13 [Example 23, (15R)-22-Fluoro-27-hydroxy-15,31-dimethyl-8-((1r,4r)-7-oxabicyclo[2.2.1]heptan-1-ylmethoxy)-3,7,9,11,16-pentaazahexacyclo[19.7.1.1˜2,6˜.1˜11,15˜.0˜5,10˜.0˜25,29˜]hentriaconta-1(28),2(31),3,5,7,9,21,23,25(29),26-decaen-17-one] | 6.95 | 6.80 | – | – | –
